# Measured values taken from ChEMBL document CHEMBL4400566, “Discovery of new ureido benzenesulfonamides incorporating 1,3,5-triazine moieties as carbonic anhydrase I, II, IX and XII inhibitors” (Bioorg Med Chem, 2019).
# Molecular target: Carbonic anhydrase 9 (Homo sapiens, UniProt Q16790)
# Description: Inhibition of recombinant human carbonic anhydrase 9 incubated for 15 mins prior to testing measured for 5 to 10 secs by phenol red-based stopped-flow CO2 hydration assay
row,Ki [nM],SMILES
1,151,NS(=O)(=O)c1ccc(NC(=O)Nc2nc(Nc3ccc(F)cc3)nc(N3CCCCC3)n2)cc1
2,185,NS(=O)(=O)c1ccc(NC(=O)Nc2nc(Nc3ccc(F)cc3)nc(N3CCOCC3)n2)cc1
3,11.8,NS(=O)(=O)c1ccc(NC(=O)Nc2nc(Cl)nc(Nc3ccc(S(N)(=O)=O)cc3)n2)cc1
4,36.9,NS(=O)(=O)c1ccc(NC(=O)Nc2nc(Nc3ccccc3)nc(N3CCOCC3)n2)cc1
5,14.1,NS(=O)(=O)c1ccc(NC(=O)Nc2nc(Cl)nc(Nc3ccccc3)n2)cc1
6,105,NS(=O)(=O)c1ccc(NC(=O)Nc2nc(Nc3ccc(Cl)c(Cl)c3)nc(N3CCOCC3)n2)cc1
7,38.1,CN(C)c1nc(NC(=O)Nc2ccc(S(N)(=O)=O)cc2)nc(Nc2ccc(Cl)cc2)n1
8,46.8,NS(=O)(=O)c1ccc(NC(=O)Nc2nc(Cl)nc(Nc3ccc(F)cc3)n2)cc1
9,87.9,NS(=O)(=O)c1ccc(NC(=O)Nc2nc(Nc3ccc(Cl)c(Cl)c3)nc(N3CCCCC3)n2)cc1
10,43.3,NS(=O)(=O)c1ccc(NC(=O)Nc2nc(Nc3ccc(Cl)cc3)nc(N3CCCCC3)n2)cc1
11,28.6,NS(=O)(=O)c1ccc(NC(=O)Nc2nc(Nc3ccc(Cl)cc3)nc(N3CCOCC3)n2)cc1
12,66.9,CN(C)c1nc(NC(=O)Nc2ccc(S(N)(=O)=O)cc2)nc(Nc2ccc(F)cc2)n1
13,28.4,NS(=O)(=O)c1ccc(NC(=O)Nc2nc(Nc3ccc(S(N)(=O)=O)cc3)nc(N3CCCCC3)n2)cc1
14,35.6,NS(=O)(=O)c1ccc(NC(=O)Nc2nc(Cl)nc(Nc3ccc(Cl)c(Cl)c3)n2)cc1
15,19,CN(C)c1nc(NC(=O)Nc2ccc(S(N)(=O)=O)cc2)nc(Nc2ccccc2)n1
16,24.9,NS(=O)(=O)c1ccc(NC(=O)Nc2nc(Nc3ccc(S(N)(=O)=O)cc3)nc(N3CCOCC3)n2)cc1
17,44,NS(=O)(=O)c1ccc(NC(=O)Nc2nc(Cl)nc(Nc3ccc(Cl)cc3)n2)cc1
18,23.5,CN(C)c1nc(NC(=O)Nc2ccc(S(N)(=O)=O)cc2)nc(Nc2ccc(Cl)c(Cl)c2)n1
19,32.3,NS(=O)(=O)c1ccc(NC(=O)Nc2nc(Nc3ccccc3)nc(N3CCCCC3)n2)cc1
20,14.6,CN(C)c1nc(NC(=O)Nc2ccc(S(N)(=O)=O)cc2)nc(Nc2ccc(S(N)(=O)=O)cc2)n1
